# Assay results reported in PubChem BioAssay AID449764 (Southern Research Specialized Biocontainment Screening …, 2010).
# System: Mycobacterium tuberculosis H37Rv growth inhibition, no glycerol
# Assay: Mycobacterium tuberculosis H37Rv growth inhibition, no glycerol, confirmatory dose response (AID 449764);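 also: growth read after 7 days of incubation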
# Details: for IC90: measured here: IC90 growth inhibition
Compound,IC50 [µM],IC90 [µM]
O=c1/c(=C\c2ccc(O)cc2)sc2n1C(c1ccccc1)C(c1ccccc1)=NN=2 (configuration not stated),41.1,66
O=C(Nc1cccc(-c2csc(Nc3ccc(Cl)cc3)n2)c1)c1cccc(C(F)(F)F)c1,43.8,> 100
Cc1ccnc(N2CCC(C(=O)Nc3cccc(C(F)(F)F)c3)CC2)n1,46.3,> 50
O=C(Nc1nc2ccc(SC(F)F)cc2s1)c1ccc(NS(=O)(=O)c2ccc(F)c(F)c2)cc1,11.9,18.9
O=C1/C(=N\S(=O)(=O)c2cccs2)C([n+]2ccc(CCCc3ccccc3)cc2)=C([O-])c2ccccc21,22.8,25.7
Cc1oc(C(=O)Nc2ccc(O)cc2)cc1COc1ccccc1,15.2,35.1
COc1ccc(NS(=O)(=O)c2ccc3nc(COc4cccc5ccccc45)[nH]c3c2)cc1,62.3,> 100
N#C/C(=N/Nc1ccc(OC(F)(F)F)cc1)C(N)=S,1.19,1.74
CCc1nc(N2CCN(C(C)=O)CC2)c2c3c(sc2n1)CC(C(C)(C)C)CC3 (configuration not stated),17.9,21.5
Cc1ccc(N2C(=O)C(F)(F)C2c2ccccc2)cc1 (configuration not stated),4.61,7.9
CCCc1ccc(C2=Nn3c(nnc3C(C)C)SC2)cc1,29.6,51.1
C=CCNC(=S)N/N=C(\C)c1ccccn1,23.4,45.5
CC1(c2ccc(OC(F)F)cc2)NC(=O)N(CC(=O)c2ccc3c(c2)OCO3)C1=O (configuration not stated),37.2,70.8
CCOC(=O)N1CCC(n2c(SCC(=O)OCc3ccccc3)nc3ccsc3c2=O)CC1,61.6,> 100
CCCCS(=O)(=O)/C=C\C=C/S(=O)(=O)CCCC,2.24,2.92
CC(C)CCNC(=O)C(c1ccc(O)cc1)N(C(=O)C1COc2ccccc2O1)c1cccc(O)c1 (configuration not stated),71.6,> 100
COc1ccc(C2CC(=O)c3cnc(Nc4cc(C)cc(C)c4)nc3C2)cc1 (configuration not stated),20.5,45.2
COc1cc(C)ccc1S(=O)(=O)N1CCN(C23CC4CC(CC(C4)C2)C3)CC1,46.5,51.1
CC(Sc1nnc(NC2CCCCC2)s1)C(=O)Nc1ccc2c(c1)C(=O)c1ccccc1C2=O (configuration not stated),11.2,14.4
C/C(=N\NC(=O)COc1ccc(C)cc1Br)c1cc([N+](=O)[O-])cs1,24,26.4
O=[N+]([O-])c1cc(-c2nc(-c3ccncc3)no2)cc([N+](=O)[O-])c1,10.4,20.5

Compound,IC50 [µM],IC90 [µM]
Cc1ccc(C(C(=O)NCC2CCCO2)N(Cc2ccccc2)C(=O)c2ccc(-c3ccccc3)[nH]2)o1 (configuration not stated),60.9,> 100
Cn1c(=O)c2c3c(sc2n2c(SCC(N)=O)nnc12)CC(C(C)(C)C)CC3 (configuration not stated),24.7,41.7
CCCCOCCCn1c(-c2ccco2)nc2nc3ccccc3nc21,99.9,> 100
Cc1sc2ncnc(N3CCC(C(=O)NCC(=O)Nc4ccc(F)c(F)c4)CC3)c2c1C,46.7,53.1
COCCCNC(=O)/C(C#N)=C/c1c(N2CCN(c3cccc(Cl)c3)CC2)nc2c(C)cccn2c1=O,38.5,> 100
Cc1ccc2nc(=O)c(NNc3ccccc3)cnc2c1,35.3,> 100
Cc1cc(C=C2C(=O)NC(=S)NC2=O)c(C)n1C1CCCC1,34.9,73.9
CN(C)CCCNC(=O)c1ccc(-c2nc(-c3ccc(Cl)cc3)cs2)cc1,26.4,33.8
C/C(=N\NC(N)=S)c1ccc(Cl)s1,11.8,23.4
CCOc1cccc(/C=C/c2ccc3cccc(O)c3n2)c1O,4.28,> 100
CNc1nc(-c2ccccn2)nnc1-c1ccccc1,22.7,25.4
c1ccc2c(c1)CCN(c1nc3cc4c(cc3s1)OCCO4)C2,35,55
Cc1cc(/C=C2\SC(=Nc3ccc(F)cc3)NC2=O)c(C)n1-c1ccc(S(N)(=O)=O)cc1,22.7,26.2
CCCCCCCCCCC[N+](C)(C)CC/C=C1/c2ccccc2Sc2ccc(Cl)cc21,8.03,9.28
CCc1ccc2oc(-c3cc(N=Cc4cccc(OC)c4O)ccc3O)nc2c1,63.8,95
CCN(CC)C(=O)[C@H]1CC(CC(=O)NCC23CC4CC(CC(C4)C2)C3)C(=O)N2CCc3c([nH]c4ccccc34)[C@]12C (some centres not stated),19.4,29.7
COc1cc(/C=C/c2cc[n+](C)cc2)ccc1OCC(=O)Nc1ccc(Cl)c(Cl)c1,25,28
Cc1ccc2c(c1)C1C[N+](C)(CC(=O)c3ccc(Cl)cc3Cl)CCC1N2C(=O)c1ccc(F)cc1 (configuration not stated),32.2,41
COc1ccc(-c2nc(CN3CCN(c4cc(C)nc(C)c4)CC3)c(C)o2)c2ccccc12,23.4,25.6
CC(=O)N1CCN(c2ccc(Oc3ccc([N+](=O)[O-])c(C(F)(F)F)c3)cc2)CC1,93.5,> 100
CC(/C=C/c1ccccc1)=N\NC(N)=S,4.99,12.3

Compound,IC50 [µM],IC90 [µM]
O=C(NCc1nnnn1-c1ccc(F)cc1)c1ccc([N+](=O)[O-])o1,53.7,> 100
Cc1cc(C)n2nc(/C(C#N)=C/c3ccccn3)c(C#N)c2n1,19.4,35.5
CN(C)S(=O)(=O)c1cccc(NC(=O)CSc2cccc3cccnc23)c1,60.6,68.2
CSCCCNC(=S)N1CCN(c2ccc(C(C)=O)cc2)CC1,37.2,49.7
CCOC(=O)c1c(NC(=O)C(NCCN(C)C)c2ccccc2)sc2c1CCCC2 (configuration not stated),9.32,12.1
CCCC12CN3CC(CCC)(CN(C1)C3c1ccccn1)C2=O (configuration not stated),9.71,> 100
O=[N+]([O-])c1cnc(Nc2ccc(Cl)cn2)c([N+](=O)[O-])c1,90.3,99.4
O=c1cc(O)c2sc3nc(-c4cccnc4)cc(C(F)(F)F)c3c2[nH]1,39.8,> 100
CCOC(=O)c1ccc2c(c1)C(=O)N(C1CCCCC1)C2=O,85,> 100
O=C1CCCC2=C1C1c3ccccc3C(=O)N1c1ccc(C(=O)c3ccccc3)cc1N2 (configuration not stated),22,24.4
CCOC(=O)c1cc(-c2csc(Nc3c(C)cc(C)cc3C)n2)on1,1.09,1.62
C=C(C)C1Cc2c(C)nn(-c3nc(C)cc(C)n3)c2C1 (configuration not stated),8.78,22.1
c1ccc(-c2nc3c(ccc4ccccc43)[nH]2)nc1,31.4,68.5
Brc1ccc2c(c1)C(OC1CN3CCC1CC3)c1ccccc1CS2 (configuration not stated),26.3,36.4
CCOC(=O)N/N=C(/C)c1ccc([N+](=O)[O-])o1,43.1,> 100
CCCSc1nn2c(=O)c3ccccc3nc2s1,14.7,28.1
Cn1cccc1/C=C1/C(=O)NC(=S)N(Cc2ccc(F)cc2)C1=O,,> 100
C#CCOc1ccc2c(c1)c(C(C)=O)c(C)n2Cc1ccccc1,,> 100
CC(c1nc2ccccc2c(=O)[nH]1)N(C)CCOc1ccc(Cl)cc1 (configuration not stated),40.7,55.5
CSCCOC(=O)COc1ccc(/C=N/NC(=O)c2c(Cl)cnn2C)cc1,19.6,37.7
